Assay results published in patent US10357537B2, “Cyclotides as immunosuppressive agents” (priority 2011, dated 2019).

What was measured:
[1] = Barry 2003; Henriques 2011; cited from earlier work
nematodes = experiment: Relative nematocidal activity (other assays, Table 2); assay type: in vivo; details: some cells print two values separated by a slash
[2] = Relative insecticidal activity (other assays, Table 2); details: in vivo
[3] = test system: T. colibriformus nematodes; details: Huang et al., 2010; read-out: IC50 nematocidal activity; cited from earlier work
[4] = test system: experimental auto-immune encephalomyelitis in C57BL/6 mice; assay type: in vivo, mouse; details: 43 days
[5] = test system: activated human primary PBMC
Procedure: (§1) After cultivation, the cells were assessed in bioassays as described in the text.
The levels of apoptosis were determined using the annexin V-FITC apoptosis detection kit (eBioscience, Frankfurt, Germany) according to the manufacturer's instructions. After annexin V staining, propidium iodide solution (PI; eBioscience) was added and the cells were incubated in the dark, followed by a flow cytometric analysis to determine the amount of apoptosis and necrosis. CPT (30 μg/mL) and Triton-X 100 (0.5%) was used as positive controls for apoptosis and necrosis, respectively.
Cellular apoptotic and necrotic hallmarks were measured by using inter-nucleosomal DNA fragmentation (subG1^+ cells) assay and phosphatidylserine surface analysis through a single and combinatory annexin V and propidium iodide staining. This double staining process allowed the discrimination between viable (annexin^−/PI^−), apoptotic (annexin^+/PI^− and annexin^+/PI^+) or necrotic (annexin^−/PI^+) cells.

[6] = test system: activated human primary PBMC; experiment: Anti-proliferative CFSE cell division assay on anti-CD3/CD28-activated PBMC; details: CFSE, flow cytometry; extract 50-100 μg/mL, cyclotides 1.8-14 μM, melittin 0.05-1.6 μM
Procedure: Human peripheral blood mononuclear cells (PBMC) were isolated from the blood of healthy adult donors obtained from the Blood Transfusion Centre (University Medical Center, Freiburg, Germany). Venous blood was centrifuged on a LymphoPrep™ gradient (density: 1.077 g/cm^3, 20 min, 500×g, 20° C.; Progen, Heidelberg, Germany). Afterwards cells were washed twice with medium and cell viability and concentration was determined using the trypan blue exclusion test. PBMC were cultured in RPMI 1640 medium supplemented with 10% heat-inactivated fetal calf serum (PAA, Coelbe, Germany), 2 mM L-glutamine, 100 U/mL penicillin and […] (all from Invitrogen, Karlsruhe, Germany). The cells were cultured at 37° C. in a humidified incubator with a 5% CO2/95% air atmosphere. All experiments conducted on human material were approved by the Ethics committee of the University of Freiburg.
as §1
For cell proliferation and cell division tracking analysis PBMC were harvested and washed twice in cold PBS and resuspended in PBS at a concentration of 5×10^6 cells/mL. Cells were incubated for 10 min at 37° C. with carboxyfluorescein diacetate succinimidyl ester (CFSE; 5 μM: Sigma-Aldrich, Taufkirchen, Germany). The staining reaction was stopped by washing twice with complete medium. Afterwards, the cell division progress was analysed using flow cytometric analysis.
The anti-proliferative effect of cyclotide mutants/variants was tested according to Example 5. […] Afterwards the cell proliferation was assessed by analysing cell division using flow cytometric-based histogram analysis.

H. contortus nematodes = details: Huang et al., 2010; read-out: IC50 nematocidal activity; cited from earlier work
[7] = test system: human T-lymphoblast cells; details: read-out: IC50 cytotoxicity; Daly et al., 2004; cited from earlier work
[8] = test system: splenocytes of vaccinated EAE mice; details: MOG35-55
Procedure: Spleens were taken from mice sacrificed 32-46 days after MOG35-55 immunization. Cells were gently dispersed through a 70 μm nylon mesh (BD) into a single cell suspension, washed and cultured at 2.5×10^6 cells/ml in complete RPMI (RPMI 1640 containing 10% heat-inactivated fetal calf serum (Sigma), 2 mM L-glutamine, 100 U/ml of penicillin, 100 μg/ml of streptomycin, 50 μm 2-mercaptoethanol and 1 mm sodium pyruvate. Two hundred microliters of cell suspensions were then added to 96 well microtitre plates either alone, with MOG35-55 (20 μg/ml) or anti-CD3ε and anti-CD 28 (20 μg/ml each) and incubated for 66 h at 37° C. with 5% CO2. Ten microliters of [^3H]thymidine (1 μCi/well; Amersham, Australia; diluted 1/10 in media) were added to each well for the last 18 h. Plates were harvested onto glass fibre filters and a drop of Microscint Scintillant (Perkin Elmer) was added to each well. Counts were read using a Top Count NXT Scintillation Counter (Perkin Elmer). Presented values are the mean of three wells.

[9] = Relative hemolytic activity (other assays, Table 2); assay type: cell-based; details: some values given for the Ala mutant
[10] = test system: CNS inflammatory and demyelinating lesions; experiment: Histopathology of CNS in EAE mice; assay type: in vivo, mouse; details: haemotoxylin/eosin, Luxol fast blue, Bielshowsky silver staining
Description: At the completion of the experiments, mice were anesthetized, their blood collected (for subsequent antibody determination) and brain and spinal cord carefully removed, prior to immersion in a 4% paraformaldehyde, 0.1 M phosphate buffer solution. Segments of brain, cerebellum and spinal cord were embedded in paraffin. Sections were stained with haemotoxylin-eosin, Luxol fast blue and Bielshowsky for evidence of inflammation, demyelination and axonal damage, respectively (McQualter 2001 J Exp Med. October 1; 194(7), 873-82). Semiquantitative histological evaluation for inflammation and demyelination was performed and scored in a blind fashion as follows: 0, no inflammation; 1, cellular infiltrate only in the perivascular areas and meninges; 2, mild cellular infiltrate in parenchyma; 3, moderate cellular infiltrate in parenchyma; and 4, severe cellular infiltrate in parenchyma (Bettadapura J Neurochem 70, 199, 1593-1599 8; Okuda J Neuroimmunol 131, 2002, 115-125).
The influence of kalata B1 vaccination on the formation of CNS inflammatory and demyelinating lesions was examined by histological studies of fixed tissue using haemotoxylin/eosin, Luxol fast blue (LFB) and Bielshowsky silver staining.

[11] = test system: activated human primary PBMC; experiment: Flow cytometric forward-side-scatter analysis of viability and proliferation; assay type: cell-based; details: data not shown
Procedure: After completion of the chemical analysis, different concentrations of the crude O. affinis cyclotide extract were tested for its anti-proliferative capacity on activated human primary PBMC (FIG. 2).

[12] = test system: spleen cell cultures of EAE mice; experiment: Cytokine bead array of spleen cell supernatants; assay type: cell-based, mouse
Procedure: For cytokine assays, 2 ml of cells (5×10^6 cells/ml) from spleens isolated 32-46 days after immunization were added to 24 well plates either alone or with MOG35-55 (10 μg/ml) or with anti-CD3ε and anti-CD 28 (20 μg/ml each). Supernatants were collected at 48 and 72 h. Quantitation of mouse cytokine content incorporating Th1, Th2 cytokines and chemokines (IFNγ, IL-2, IL-3, IL-4, IL-5, IL-6, IL-9, IL-10, IL-12p70, IL-13, GM-CSF, KC, MCP-1, MIG, and TNF) were simultaneously determined using a multiplexed bead assay (Cytometric Bead Array Flex sets [CBA]) according to the manufacturer's recommended protocol (Becton Dickinson). Acquisition of 4500 events was performed using a FACScanto II flow cytometer (Becton Dickinson, San Jose, USA) and Diva software and data analysed and fitted to a 4-parameter logistic equation using the FCAP array software (Soft Flow, Pécs, Hungary). Minimum detection levels of each cytokine were: IFNγ, 5.2 μg/ml; IL-2, 1.5 μg/ml; IL-3, 4.2 μg/ml; IL-4, 0.8 μg/ml; IL-5, 4.8 μg/ml; IL-6, 6.5 μg/ml; IL-9, 10.5 μg/ml; IL-10, 16.4 μg/ml; IL-12p70, 9.2 μg/ml; IL-13, 7.3 μg/ml; GM-CSF, 9.9 μg/ml; KC, 16.2 μg/ml; MCP-1, 29 μg/ml; MIG, 11.4 μg/ml and TNF, 17.1 μg/ml.
Accordingly, conditioned media generated from in vitro stimulated and non-stimulated spleen cell cultures were assessed in cytokine bead array assays. A total of 15 cytokines were analysed simultaneously, including, IL2, IL3, IL4, IL5, IL6, IL9, IL10, IL12p70, IL13, IFNγ, GM-CSF, KC, MCP1, MIG and TNFα.

anti-MOG antibodies = experiment: MOG-specific antibody ELISA of sera; assay type: in vivo, mouse; details: Day 43, reactivity to MOG35-55
Procedure: Antibody activity to rMOG and MOG35-55 in mouse sera was measured by ELISA, as previously described Ichikawa Cell Immunol 191, 1999, 97-104). Briefly, serum was collected at the end of the experiments and tested by ELISA with rMOG and MOG35-55 peptide-coated plates (Maxisorp, Nunc).
Whether the suppression of EAE in mice vaccinated with kalata B1 was associated with a decrease in the production of specific antibodies to MOG was examined. Accordingly, sera from kalata B1 and PBS treated mice were collected at the completion of the experiment (Day 43) and tested for their reactivity to MOG35-55.

[13] = non-stimulated spleen cell supernatants

In the case of `CC(C)C[C@@H]1NC(=O)CNC(=O)[C@H](CC(N)=O)NC(=O)[C@H](CCCNC(=N)N)NC(=O)[C@H]([C@@H](C)O)NC(=O)[C@@H]2CSSC[C@@H]3NC(=O)[C@H]([C@@H](C)O)NC(=O)CNC(=O)CNC(=O)[C@H](C(C)C)NC(=O)[C@@H]4CSSC[C@H](NC(=O)[C@H]([C@@H](C)O)NC(=O)[C@H](CSSC[C@H](NC(=O)[C@H](C(C)C)NC(=O)[C@@H]5CCCN5C1=O)C(=O)NCC(=O)N[C@@H](CCC(=O)O)C(=O)N[C@@H]([C@@H](C)O)C(=O)N4)NC(=O)CNC(=O)[C@@H]1CCCN1C(=O)[C@H]([C@@H](C)O)NC(=O)[C@H](CC(N)=O)NC3=O)C(=O)N[C@@H](CO)C(=O)N[C@@H](Cc1c[nH]c3ccccc13)C(=O)N1CCC[C@H]1C(=O)N[C@@H](C(C)C)C(=O)N2` [Kalata B1], the “concentrations causing hemolysis and membrane disruption” value [1] is listed as greater than 50 µM, the “Relative activity in other assays (fold difference to kB1): nematocidal” value (nematodes) is listed as 1.0 fold difference to kB1 and the “Relative activity in other assays (fold difference to kB1): insecticidal” value [2] is listed as 1.0 fold difference to kB1. The IC50 [3] was 4.5 µM, the mean cumulative score ([4]; p<0.01 vs PBS control group) was 42.2±13.0 and the “incidence and severity of EAE” value ([4]; three sc injections in IFA at weekly intervals before EAE induction) was “reduction in the incidence and severity of EAE”. The induction of necrosis ([5]; kalata B1 14 μM vs untreated control, Triton-X 100, melittin high concentrations) was “slightly increased”, the induction of apoptosis ([5]; kalata B1 1.8-14 μM, CPT 30 μg/mL, melittin up to 1.6 μM) was “no significant influence on the induction of apoptosis” and the “cell division / proliferation of activated PBMC (in words)” value [6] was “dose-dependent decrease of the cell division capacity”. For the same molecule, the IC50 (H. contortus nematodes) was 2.7 µM, the IC50 [7] was 3.5 µM and the “stimulation indices (SI), splenocyte proliferation to MOG” value [8] was 2.9±0.4. For the same molecule, the “Relative activity in other assays (fold difference to kB1): hemolytic” value [9] was 0.7 fold difference to kB1, the “histological lesions of EAE” value [10] was “some improvement in disease severity as judged by decrease in histological lesions of EAE” and the “concentrations cytotoxic to the cells” value [11] was “higher than 14 μM”. The “cytokine content in stimulated supernatants” value ([12]; MOG35-55 or CD3/38-stimulated, cyclotide vs control groups, data not shown) was “no marked changes in cytokine content”, the “level of TNFα” value [12, 13] was “significantly reduced levels” and the “level of chemokine MIG” value [12, 13] was “significantly reduced levels”. For the same molecule, the “anti-MOG antibodies in sera” value (anti-MOG antibodies) was “anti-MOG antibodies were detected in all sera regardless of the vaccination regimen”.
